# Measured values as given in ChEMBL document CHEMBL1123604 (J Med Chem, 1987).
# Assays:
# Canis familiaris [1] = assay: Myocardial contractility in anesthetized dog by intravenous dose; type: functional; details: Canis lupus familiaris, Myocardium
# Canis familiaris [2] = assay: Change in heart rate(HR) in anesthetized dog; type: functional, Canis lupus familiaris
# [3] = Inhibition of Guinea Pig cAMP specific phosphodiesterase (PDE III)
# Canis familiaris [4] = assay: Change in mean arterial blood pressure(MAP) in anesthetized dog; type: functional, Canis lupus familiaris, Artery
# Canis familiaris [5] = assay: Increased myocardial contractility (dP/dt max) in anesthetized dog at 2 mg/kg; type: functional, Canis lupus familiaris, Myocardium
# Canis familiaris [6] = assay: Percent change in blood pressure in anesthetized dog at 0.31 mg/kg; type: functional, Canis lupus familiaris
# Canis familiaris [7] = assay: Increased myocardial contractility (dP/dt max) in conscious dog at 1 mg/kg peroral dose; type: functional, Canis lupus familiaris, Myocardium; details: route oral
# Canis familiaris [8] = assay: Increased myocardial contractility (dP/dt max) in anesthetized dog at 8 mg/kg; type: functional, Canis lupus familiaris, Myocardium
# Canis familiaris [9] = assay: Percent change in blood pressure in anesthetized dog at 0.1 mg/kg; type: functional, Canis lupus familiaris
# Canis familiaris [10] = assay: Percent change of ventricular pressure in anesthetized dog at 0.31 mg/kg; type: functional, Canis lupus familiaris, Cardiac ventricle
# Canis familiaris [11] = assay: Percent change of heart rate in anesthetized dog at 0.01 mg/kg; type: functional, Canis lupus familiaris
# Canis familiaris [12] = assay: Percent change of ventricular pressure in anesthetized dog at 0.01 mg/kg; type: functional, Canis lupus familiaris, Cardiac ventricle
# Canis familiaris [13] = assay: Increased myocardial contractility (dP/dt max) in conscious dog at 0.31 mg/kg peroral dose, range 10-20; type: functional, Canis lupus familiaris, Myocardium; details: route oral
# Canis familiaris [14] = assay: Increased myocardial contractility (dP/dt max) in anesthetized dog
# Canis familiaris [15] = assay: Percent change in blood pressure in anesthetized dog at 0.01 mg/kg; type: functional, Canis lupus familiaris
# Canis familiaris [16] = assay: Percent change of heart rate in anesthetized dog at 0.1 mg/kg; type: functional, Canis lupus familiaris
# Canis familiaris [17] = assay: Percent change in ventricular pressure in anesthetized dog at 0.031 mg/kg; type: functional, Canis lupus familiaris, Cardiac ventricle
# Canis familiaris [18] = assay: Percent change in heart rate in anesthetized dog at 0.031 mg/kg; type: functional, Canis lupus familiaris
# Canis familiaris [19] = assay: Percent change of heart rate in anesthetized dog at 1 mg/kg; type: functional, Canis lupus familiaris
# Canis familiaris [20] = assay: Percent change in blood pressure in anesthetized dog at 0.031 mg/kg; type: functional, Canis lupus familiaris
# Canis familiaris [21] = assay: Percent change in blood pressure in anesthetized dog at 1 mg/kg; type: functional, Canis lupus familiaris
# Canis familiaris [22] = assay: Percent change of heart rate in anesthetized dog at 0.31 mg/kg; type: functional, Canis lupus familiaris
# Canis familiaris [23] = assay: Percent change in ventricular pressure in anesthetized dog at 0.1 mg/kg; type: functional, Canis lupus familiaris, Cardiac ventricle
# Canis familiaris [24] = assay: Percent change of ventricular pressure in anesthetized dog at 1 mg/kg; type: functional, Canis lupus familiaris, Cardiac ventricle
# Canis familiaris [25] = assay: Increased myocardial contractility (dP/dt max) in anesthetized dog at 6 mg/kg; type: functional, Canis lupus familiaris, Myocardium
# Canis familiaris [26] = assay: Percent change of heart rate in anesthetized dog at 0.031 mg/kg; type: functional, Canis lupus familiaris
# Canis familiaris [27] = assay: Increased contractility (dP/dt max) in Conscious dog at peroral dose of 0.31 mg/kg; type: functional, Canis lupus familiaris; details: route oral
# Canis familiaris [28] = assay: Percent change of ventricular pressure in anesthetized dog at 0.1 mg/kg; type: functional, Canis lupus familiaris, Cardiac ventricle
# Canis familiaris [29] = assay: Percent change of ventricular pressure in anesthetized dog at 0.031 mg/kg; type: functional, Canis lupus familiaris, Cardiac ventricle
# [30] = Inhibition of Guinea Pig cAMP specific phosphodiesterase (PDE III); remark: listed apart in the source
smiles,measurement,setting,value
CC1(C)C(=O)NN=C1c1ccc(-n2cnc3c2CCCC3)cc1,ED50,Canis familiaris [1],0.2 mg/kg
same,Change,Canis familiaris [2],10%
same,IC50,[3],3.2 µM
same,Change,Canis familiaris [4],-10%
CCC1(C)C(=O)NN=C1c1ccc(-n2ccnc2)cc1 (stereo not drawn),ED50,Canis familiaris [1],0.37 mg/kg
same,Change,Canis familiaris [2],17%
same,IC50,[3],52 µM
same,Change,Canis familiaris [4],6%
CC1(C)CC(=O)NN=C1c1ccc(-n2ccnc2)cc1,Dose,Canis familiaris [5],0.2 mg/kg
CCC1C(=O)NN=C1c1ccc(-n2ccnc2)cc1 (stereo not drawn),ED50,Canis familiaris [1],> 1 mg/kg
same,Change,Canis familiaris [2],0%
same,IC50,[3],270 µM
same,Change,Canis familiaris [4],0%
O=C1CCC(c2ccc(-n3ccnc3)cc2)=NN1 [IMAZODAN],Change,Canis familiaris [6],-13.2%
same,Increase contractility,Canis familiaris [7],40%
same,Dose,Canis familiaris [8],0.045 mg/kg
same,Change,Canis familiaris [9],-5.3%
same,Change,Canis familiaris [10],127.3%
same,Change,Canis familiaris [11],0%
same,Change,Canis familiaris [12],10.2%
same,Increase contractility,Canis familiaris [13],10%
same,Dose,Canis familiaris [14],0.045 mg/kg
same,Change,Canis familiaris [15],-0.7%
same,Change,Canis familiaris [16],6.2%
same,Change,Canis familiaris [17],37.2%
same,Change,Canis familiaris [18],5.6%
same,Change,Canis familiaris [19],33.8%
same,Change,Canis familiaris [20],-4.1%
same,Change,Canis familiaris [21],-22.4%
same,Change,Canis familiaris [22],19.2%
same,Change,Canis familiaris [23],74.2%
same,Change,Canis familiaris [24],146.7%
CC1(C)C(=O)NN=C1c1ccc(-n2ccnc2)cc1,Change,Canis familiaris [6],-20%
same,Dose,Canis familiaris [25],0.18 mg/kg
same,Change,Canis familiaris [9],-11%
same,Change,Canis familiaris [10],78%
same,ED50,Canis familiaris [1],0.18 mg/kg
same,Change,Canis familiaris [11],0%
same,Change,Canis familiaris [26],0.2%
same,Change,Canis familiaris [2],4.9%
same,Change,Canis familiaris [12],6%
same,Change,Canis familiaris [27],24%
same,Change,Canis familiaris [15],-0.5%
same,Change,Canis familiaris [16],0.8%
same,Change,Canis familiaris [19],14%
same,Change,Canis familiaris [28],39%
same,IC50,[3],22 µM
same,Change,Canis familiaris [4],-14%
same,Change,Canis familiaris [20],-4%
same,Change,Canis familiaris [21],-34%
same,Change,Canis familiaris [22],9%
same,Change,Canis familiaris [29],10%
same,Change,Canis familiaris [24],100%
CC1CC(O)=NN=C1c1ccc(-n2ccnc2)cc1 (stereo not drawn) [CI-930],Dose,Canis familiaris [25],0.013 mg/kg
O=C1CC(c2ccc(-n3ccnc3)cc2)=NN1,ED50,Canis familiaris [1],> 1 mg/kg
same,Change,Canis familiaris [2],0%
same,IC50,[3],590 µM
same,Change,Canis familiaris [4],0%
CC1CC(c2ccc(-n3ccnc3)cc2)=NNC1=O (stereo not drawn),Dose,Canis familiaris [5],0.5 mg/kg
O=C1NN=C(c2ccc(-n3ccnc3)cc2)C12CCCC2,ED50,Canis familiaris [1],1 mg/kg
same,Change,Canis familiaris [2],3.5%
same,IC50,[3],54 µM
same,Change,Canis familiaris [4],-0.25%
CSc1ccc(C2=NNC(=O)C2(C)C)cc1,ED50,Canis familiaris [1],0.35 mg/kg
same,Change,Canis familiaris [2],5%
same,Change,Canis familiaris [4],-1%
CC1(C)CC(c2ccc(-n3ccnc3)cc2)=NNC1=O,Dose,Canis familiaris [5],0.05 mg/kg
CC1C(=O)NN=C1c1ccc(-n2ccnc2)cc1 (stereo not drawn),IC50,[30],140 µM
same,ED50,Canis familiaris [1],> 1 mg/kg
same,Change,Canis familiaris [2],0%
same,Change,Canis familiaris [4],0%
CCC1(CC)C(=O)NN=C1c1ccc(-n2ccnc2)cc1,ED50,Canis familiaris [1],> 1 mg/kg
same,Change,Canis familiaris [2],0%
same,IC50,[3],120 µM
same,Change,Canis familiaris [4],0%
CC1(C)C(=O)NN=C1c1ccncc1,ED50,Canis familiaris [1],0.3 mg/kg
same,Change,Canis familiaris [2],11%
same,Change,Canis familiaris [4],1%
